{
  "source": "patent US20040162221A1",
  "about": "“Pyrazole derivatives and herbicides containing the same” (IDEMITSU KOSAN CO., LTD., priority 1998, published 2004); for Herbicidal Efficacy AA = Velvetleaf: ranges in brackets are in %; for Herbicidal Efficacy BB = Common lambsquaters: ranges in brackets are in %; for Herbicidal Efficacy CC = Redroot Pigweed: ranges in brackets are in %; for Herbicidal Efficacy CC = Rough Pigweed: ranges in brackets are in %; for Herbicidal Efficacy EE = Green foxtail: ranges in brackets are in %; for Herbicidal Efficacy FF = Large crabgrass: ranges in brackets are in %; for Phytotoxicity Corn: ranges in brackets are in %",
  "key": {"common ragweed [1]": {"tested_on": "common ragweed", "test": "Upland pre-emergence treatment test, common ragweed; for Herbicidal Efficacy DD = Common ragweed: ranges in brackets are in %", "type": "in vivo, common ragweed (Ambrosia artemisilfolia)", "source_text": "(§1) 97 Parts by weight of talc (trade name: Zeaklite, supplied by Zeaklite Industry) as a carrier, 1.5 parts by weight of alkylarylsulfonic acid salt (trade name: Neoplex, supplied by Kao-Atlas K.K.) as a surfactant and 1.5 parts by weight of a nonionic and anionic surfactant (trade names Sorpol 800A, supplied by Toho Chemical Co., Ltd.) were uniformly pulverized and mixed to prepare a carrier for a wettable powder.\n(§2) 90 Parts by weight of the above carrier for a wettable powder and 10 parts by weight of one of the compounds of the present invention were uniformly pulverized and mixed to obtain herbicides. Further, in Comparative Herbicide Examples, comparative herbicides were also prepared from the following compounds (A) and (B) in the same manner.\n(§3) Herbicidal efficacy and phytotoxicity to crops were determined on the basis of the ratio of remaining plant weight to plant weight in non-treated plot=(remaining plant weight in treated plot/plant weight in non-treated-plot)×100. The ratings were applied to the following biological tests.\n(§4) Seeds of weeds such as velvetleaf, common lambsquaters, redroot pigweed, common ragweed, green foxtail and large crabgrass and seeds of corn were sown in 1/5,000-are Wagner pots filled with upland soil, and covered with upland soil. Then, a predetermined amount of the herbicide prepared in the above (1) was suspended in water, and the suspension was uniformly sprayed onto the soil surface at a rate of 2,000 liters/hectare. Then, the seeds were grown in a greenhouse, and on the 20th day after the treatment, the herbicide was evaluated for herbicidal efficacy and phytotoxicity to corn on the basis of the ratings shown in (2)."}, "green foxtail [2]": {"tested_on": "green foxtail", "test": "Upland post-emergence treatment test, green foxtail", "type": "in vivo, green foxtail (Setaria viridis)", "conditions": "post-emergence spray at 3-4 leaf stage, 80 g/ha, 30th day after treatment, greenhouse", "source_text": "as §1, §2, §3\n(§5) Seeds of weeds velvetleaf, redroot pigweed, common ragweed, green foxtail and large crabgrass and seeds of corn were sown in 1/5,000-are Wagner pots filled with upland soil, and covered with upland soil. The seeds were grown in a greenhouse, and at the stage of 3˜4 leaves of these plants, a predetermined amount of the herbicide prepared in the above (1) was suspended in water, and the suspension was uniformly sprayed onto leaf and stalk portions at a rate of 2,000 liters/hectare. Then, the plants were grown in the greenhouse, and on the 30th day after the treatment, the herbicide was evaluated for herbicidal efficacy and phytotoxicity to the corn on the basis of the ratings shown in (2)."}, "large crabgrass [3]": {"tested_on": "large crabgrass", "test": "Upland pre-emergence treatment test, large crabgrass", "type": "in vivo", "conditions": "pre-emergence soil surface spray, 80 g/ha, 20th day after treatment, greenhouse", "source_text": "as §1, §2, §3, §4"}, "redroot pigweed [4]": {"tested_on": "redroot pigweed", "test": "Upland pre-emergence treatment test, redroot pigweed", "type": "in vivo, redroot pigweed (Amaranthus retroflexus)", "source_text": "as §1, §2, §3, §4"}, "velvetleaf [5]": {"tested_on": "velvetleaf", "test": "Upland post-emergence treatment test, velvetleaf", "type": "in vivo, velvetleaf (Abutilon theophrasti)", "source_text": "as §1, §2, §3, §5"}, "common lambsquaters": {"tested_on": "common lambsquaters", "test": "Upland pre-emergence treatment test, common lambsquaters", "type": "in vivo, common lambsquaters (Chenopodium album)", "conditions": "pre-emergence soil surface spray, 80 g/ha, 20th day after treatment, greenhouse", "source_text": "as §1, §2, §3, §4"}, "common ragweed [6]": {"tested_on": "common ragweed", "test": "Upland post-emergence treatment test, common ragweed", "type": "in vivo, common ragweed (Ambrosia artemisilfolia)", "conditions": "post-emergence spray at 3-4 leaf stage, 80 g/ha, 30th day after treatment, greenhouse", "source_text": "as §1, §2, §3, §5"}, "large crabgrass [7]": {"tested_on": "large crabgrass", "test": "Upland post-emergence treatment test, large crabgrass", "type": "in vivo", "conditions": "post-emergence spray at 3-4 leaf stage, 80 g/ha, 30th day after treatment, greenhouse", "source_text": "as §1, §2, §3, §5"}, "green foxtail [8]": {"tested_on": "green foxtail", "test": "Upland pre-emergence treatment test, green foxtail", "type": "in vivo, green foxtail (Setaria viridis)", "conditions": "pre-emergence soil surface spray, 80 g/ha, 20th day after treatment, greenhouse", "source_text": "as §1, §2, §3, §4"}, "corn [9]": {"tested_on": "corn", "test": "Upland pre-emergence treatment test, phytotoxicity to corn", "type": "in vivo", "conditions": "pre-emergence soil surface spray, 80 g/ha, 20th day after treatment, greenhouse", "source_text": "as §1, §2, §3, §4"}, "velvetleaf [10]": {"tested_on": "velvetleaf", "test": "Upland pre-emergence treatment test, velvetleaf", "type": "in vivo, velvetleaf (Abutilon theophrasti)", "source_text": "as §1, §2, §3, §4"}, "redroot pigweed [11]": {"tested_on": "redroot pigweed", "test": "Upland post-emergence treatment test, redroot pigweed", "type": "in vivo, redroot pigweed (Amaranthus retroflexus)", "source_text": "as §1, §2, §3, §5"}, "corn [12]": {"tested_on": "corn", "test": "Upland post-emergence treatment test, phytotoxicity to corn", "type": "in vivo", "conditions": "post-emergence spray at 3-4 leaf stage, 80 g/ha, 30th day after treatment, greenhouse", "source_text": "as §1, §2, §3, §5"}, "[13]": {"conditions": "pre-emergence soil surface spray, 80 g/ha, 20th day after treatment, greenhouse"}, "[14]": {"conditions": "pre-emergence, text summary of Table 7"}, "[15]": {"conditions": "post-emergence spray at 3-4 leaf stage, 80 g/ha, 30th day after treatment, greenhouse"}},
  "data": [
    {"smiles": "CCn1ncc(C(=O)c2cc(C)c3c(c2C)C(C)CS3(=O)=O)c1O", "note": "(stereo not drawn) [Compound (B), reference compound]", "values": [
      {"measurement": "Herbicidal Efficacy DD = Common ragweed", "setting": "common ragweed [1]; [13]", "value": "2 (41-60)"},
      {"measurement": "herbicidal efficacy against common ragweed (in words)", "setting": "common ragweed [1]; [14]", "value": "inferior"},
      {"measurement": "Herbicidal Efficacy EE = Green foxtail", "setting": "green foxtail [2]", "value": "4 (1-20)"},
      {"measurement": "Herbicidal Efficacy FF = Large crabgrass", "setting": "large crabgrass [3]", "value": "5 (0)"},
      {"measurement": "Herbicidal Efficacy CC = Rough Pigweed", "setting": "redroot pigweed [4]; [13]", "value": "1 (61-80)"},
      {"measurement": "herbicidal efficacy against redroot pigweed (in words)", "setting": "redroot pigweed [4]; [14]", "value": "inferior"},
      {"measurement": "Herbicidal Efficacy AA = Velvetleaf", "setting": "velvetleaf [5]; [15]", "value": "2 (41-60)"},
      {"measurement": "herbicidal efficacy against velvetleaf (in words)", "setting": "velvetleaf [5]; post-emergence, Tables 8 and 9", "value": "inferior"},
      {"measurement": "Herbicidal Efficacy BB = Common lambsquaters", "setting": "common lambsquaters", "value": "4 (1-20)"},
      {"measurement": "Herbicidal Efficacy DD = Common ragweed", "setting": "common ragweed [6]", "value": "5 (0)"},
      {"measurement": "Herbicidal Efficacy FF = Large crabgrass", "setting": "large crabgrass [7]", "value": "5 (0)"},
      {"measurement": "Herbicidal Efficacy EE = Green foxtail", "setting": "green foxtail [8]", "value": "5 (0)"},
      {"measurement": "Phytotoxicity Corn", "setting": "corn [9]", "value": "− (100)"},
      {"measurement": "Herbicidal Efficacy AA = Velvetleaf", "setting": "velvetleaf [10]; [13]", "value": "1 (61-80)"},
      {"measurement": "herbicidal efficacy against velvetleaf (in words)", "setting": "velvetleaf [10]; [14]", "value": "inferior"},
      {"measurement": "Herbicidal Efficacy CC = Redroot Pigweed", "setting": "redroot pigweed [11]; [15]", "value": "2 (41-60)"},
      {"measurement": "herbicidal efficacy against redroot pigweed (in words)", "setting": "redroot pigweed [11]; post-emergence, Tables 8 and 9", "value": "inferior"},
      {"measurement": "Phytotoxicity Corn", "setting": "corn [12]", "value": "++ (80-89)"}
    ]}
  ]
}
